In ChEMBL document CHEMBL4184199, “Structural optimization of N1-aryl-benzimidazoles for the discovery of new non-nucleoside reverse transcriptase inhibitors active against wild-type and mutant HIV-1 strains” (Bioorg Med Chem, 2018):
The source made the active and inactive calls. No cut-off for these calls is given here.

What was measured:
[1] = target: Human immunodeficiency virus type 1 reverse transcriptase (Human immunodeficiency virus 1, UniProt Q72547); assay: Inhibition of recombinant wild-type HIV-1 3B reverse transcriptase p66/p51 RNA-dependent DNA polymerase activity expressed in Escherichia coli JM109 assessed as reduction in dTTP incorporation using poly(rA)/oligo(dT)16 as template/primer after 40 mins by PicoGreen dye based spectrofluorometric analysis
[2] = Selectivity index, ratio of CC50 for human MT4 cells to EC50 for HIV1 3B expressing wild type reverse transcriptase; type: toxicity; conditions: read-out: Ratio CC50/EC50
[3] = tested on: Human immunodeficiency virus 1; assay: Antiviral activity against HIV1 3B infected in human MT4 cells assessed as reduction in virus-induced cytopathic effect after 5 days by MTT assay; type: functional, organism-based; conditions: Human immunodeficiency virus 1, 3B, MT4, 120 h
[4] = Cytotoxicity against human MT4 cells after 5 days by MTT assay; type: cell-based
[5] = tested on: Human immunodeficiency virus 2; assay: Antiviral activity against HIV2 ROD infected in human MT4 cells assessed as reduction in virus-induced cytopathic effect after 5 days by MTT assay; type: functional, organism-based; conditions: ISOLATE ROD

SMILES | IC50 [1] [µM] | selectivity ratio [2] | EC50 [3] [µM] | CC50 at 120 h [4] [µM] | Activity [5]
Cc1cc(C)cc(S(=O)(=O)n2c(SCC(=O)Nc3ccc(S(C)(=O)=O)cc3)nc3ccccc32)c1 | 0.047 | 385 | 0.028 | 10.6 | inactive
Cc1cc(C)cc(S(=O)(=O)n2c(SCC(=O)Nc3ccccc3C(=O)O)nc3ccccc32)c1 | 21.3 | 4 | 6.83 | 25.2 | inactive
O=C1Nc2ccc(Cl)cc2[C@@](C#CC2CC2)(C(F)(F)F)O1 [EFAVIRENZ] | – | – | – | > 6.33 | –
Cc1cc(C)cc(S(=O)(=O)n2c(SCC(=O)Nc3ccc(S(C)(=O)=O)cc3Cl)nc3ccccc32)c1 | – | 5540 | – | ≥ 222 | –
Cc1cc(C)cc(S(=O)(=O)n2c(SCC(=O)Nc3ccccc3S(N)(=O)=O)nc3ccccc32)c1 | 7.68 | 9 | 2.72 | 25 | inactive
Cc1cc(C)cc(S(=O)(=O)n2c(OCC(=O)Nc3ccc(S(N)(=O)=O)cc3Cl)nc3ccccc32)c1 | 5.84 | > 908 | 0.25 | > 227 | inactive
Cc1cc(C)cc(S(=O)(=O)n2c(OCC(=O)Nc3ccccc3Cl)nc3ccccc32)c1 | 47.3 | 155 | 1.09 | 169 | inactive
Cc1ccnc2c1NC(=O)c1cccnc1N2C1CC1 [NEVIRAPINE] | – | – | – | > 15 | –
Cc1cc(C)cc(S(=O)(=O)n2c(SCC(=O)Nc3ccccc3Br)nc3ccccc32)c1 | – | > 3930 | – | ≥ 236 | inactive
COC(=O)c1ccc(NC(=O)CSc2nc3ccccc3n2S(=O)(=O)c2cc(C)cc(C)c2)c(Cl)c1 | – | – | – | 145 | inactive
Cc1cc(C)cc(S(=O)(=O)n2c(SCC(=O)Nc3ccc(S(N)(=O)=O)cc3Cl)nc3ccccc32)c1 | – | – | – | – | inactive
Cc1cc(C)cc(S(=O)(=O)n2c(SCC(=O)Nc3ccccc3S(C)(=O)=O)nc3ccccc32)c1 | 60.6 | < 1 | ≥ 9.44 | 9.31 | inactive
Cc1cc(C)cc(S(=O)(=O)n2c(SCC(=O)Nc3ccccc3Cl)nc3ccccc32)c1 | – | – | 0.88 | – | inactive
Cc1cc(C)cc(S(=O)(=O)n2c(OCC(=O)Nc3ccccc3Br)nc3ccccc32)c1 | 15.7 | > 157 | 1.55 | > 243 | inactive
Cc1cc(C)cc(S(=O)(=O)n2c(SCC(=O)Nc3ccccc3C)nc3ccccc32)c1 | 0.222 | 27 | 0.235 | 6.15 | inactive

The next lines start with results.

IC50 [1] [µM] | SMILES | selectivity ratio [2] | EC50 [3] [µM] | CC50 at 120 h [4] [µM] | Activity [5]
0.088 | COC(=O)c1ccc(NC(=O)CSc2nc3ccccc3n2S(=O)(=O)c2cc(C)cc(C)c2)cc1 | 196 | 0.051 | 10 | inactive
0.76 | Cc1cc(C)cc(S(=O)(=O)n2c(OCC(=O)Nc3ccc(S(C)(=O)=O)cc3Cl)nc3ccccc32)c1 | > 1890 | 0.12 | > 228 | inactive
0.13 | Cc1cc(C)cc(S(=O)(=O)n2c(SCC(=O)Nc3ccc(C(=O)O)cc3)nc3ccccc32)c1 | 577 | 0.2 | 115 | inactive
15.7 | COC(=O)c1ccccc1NC(=O)CSc1nc2ccccc2n1S(=O)(=O)c1cc(C)cc(C)c1 | < 5 | ≥ 1.06 | 5.22 | inactive
0.091 | Cc1ccc(NC(=O)CSc2nc3ccccc3n2S(=O)(=O)c2cc(C)cc(C)c2)cc1 | 31 | 0.094 | 2.97 | inactive
5.45 | COC(=O)c1ccc(NC(=O)COc2nc3ccccc3n2S(=O)(=O)c2cc(C)cc(C)c2)c(Cl)c1 | 151 | 0.79 | 119 | inactive
0.05 | Cc1cc(C)cc(S(=O)(=O)n2c(SCC(=O)Nc3ccc(S(N)(=O)=O)cc3)nc3ccccc32)c1 | 1290 | 0.024 | 30.9 | inactive
